The source of these data is US7595398B2, “N-(5-membered aromatic ring)-amido anti-viral compounds” (SmithKline Beecham Corporation, priority 2005, dated 2009).

The test system of the assay is HCV replicon I389luc-ubi-neo/NS3-3′/ET in ET (Huh-lucubineo-ET) cells; screening for HCV RNA dependent RNA polymerase. The experiment in a line: Replicon Assay (luciferase, ET cell line Huh-lucubineo-ET). It counts as cell-based. The note with it: Hepatitis C virus; inhibition of replication relative to no compound control; test concentration of 10 μM according to the fitted equation; luciferase 48-72 hours. The procedure, abridged:
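Huh-derived ET cells stably carrying an I389luc-ubi-neo/NS3-3′/ET HCV replicon with a luciferase-ubiquitin-neomycin phosphotransferase fusion and adaptive NS3-5B mutations were cultured in DMEM with 10% fetal calf serum and 250 μg/mL G418. Cells were seeded at 0.5-1.0×10^4 cells/well in 96 well plates and given compound after 24 hrs. Luciferase was read 48-72 hours later with Bright-Glo reagents, and replication inhibition was expressed relative to untreated controls.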
(In general: In antiviral work, replicon cells carry a viral genome segment that copies itself.)
By inhibition is commonly meant how much of the control response was suppressed. The low end stands for little suppression, the high end for strong suppression. On to `CC(C)(C)c1csc(NC(=O)[C@@H]2CCCN2C(=O)OCc2ccccc2)n1` [Compound 5360, 2-(4-tert-Butyl-thiazol-2-ylcarbamoyl)-pyrrolidine-1-carboxylic acid benzyl ester], for which testing at 10 µM gave an inhibition of 54%. Next, `O=C(NC1CC1)c1ccc(-c2csc(NC(=O)[C@@H]3CCCN3C(=O)OCc3ccc(F)cc3)n2)cc1` [Compound 5361, 2-[4-(4-Cyclopropylcarbamoyl-phenyl)-thiazol-2-ylcarbamoyl]-pyrrolidine-1-carboxylic acid 4-fluoro-benzyl ester]: 98.4%; `COC(=O)c1sc(NC(=O)[C@@H]2CCCN2C(=O)OCc2ccccc2)nc1-c1ccc(C(=O)NC2CC2)cc1` [Compound 5362, 2-[(1-Benzyloxycarbonyl-pyrrolidine-2-carbonyl)-amino]-4-(4-cyclopropylcarbamoyl-phenyl)-thiazole-5-carboxylic acid methyl ester]: 98.7%. The compound `O=C(NC1CCCC1)c1cccc(-c2cnc(NC(=O)[C@@H]3CCCN3C(=O)OCc3ccccc3)s2)c1` [Compound 5363, 2-[5-(3-Cyclopentylcarbamoyl-phenyl)-thiazol-2-ylcarbamoyl]-pyrrolidine-1-carboxylic acid benzyl ester] registered an inhibition at 10 µM of 1.64%.

In turn, `O=C(Nc1nc(-c2ccc(C(=O)N3CCOCC3)cc2)cs1)C1CCCN1C(=O)OCc1ccccc1` (stereo not drawn) [Compound 5364, 2-{4-[4-(Morpholine-4-carbonyl)-phenyl]-thiazol-2-ylcarbamoyl}-pyrrolidine-1-carboxylic acid benzyl ester] showed an inhibition at 10 µM of 4.49%.

`O=C(Nc1ccc(-c2csc(NC(=O)[C@@H]3CCC(=O)N3C(=O)OCc3ccccc3)n2)cc1)C1CC1` [Compound 5366, 2-{4-[4-(Cyclopropanecarbonyl-amino)-phenyl]-thiazol-2-ylcarbamoyl}-5-oxo-pyrrolidine-1-carboxylic acid benzyl ester] displayed an inhibition at 10 µM of 99.3%. As to `O=C(NC1CC1)c1ccc(-c2csc(NC(=O)[C@@H]3CCCN3C(=O)c3ccccc3)n2)cc1` [Compound 5367, 1-Benzoyl-pyrrolidine-2-carboxylic acid [4-(4-cyclopropylcarbamoyl-phenyl)-thiazol-2-yl]-amide], the inhibition at 10 µM came to 97.3%. The compound `O=C(NC1CCCC1)c1ccc(-c2cnc(NC(=O)[C@@H]3CCCN3C(=O)OCc3ccccc3)s2)cc1` [Compound 5368, 2-[5-(4-Cyclopentylcarbamoyl-phenyl)-thiazol-2-ylcarbamoyl]-pyrrolidine-1-carboxylic acid benzyl ester] had an inhibition at 10 µM of 50.8%. Compound `O=C(NCc1ccc(-c2csc(NC(=O)[C@@H]3CCCN3C(=O)OCc3ccccc3)n2)cc1)C1CC1` [Compound 5369, 2-(4-{4-[(Cyclopropanecarbonyl-amino)-methyl]-phenyl}-thiazol-2-ylcarbamoyl)-pyrrolidine-1-carboxylic acid benzyl ester] registered an inhibition at 10 µM of 98.3%. On to `COCCCNC(=O)c1ccc(-c2csc(NC(=O)[C@@H]3CCCN3C(=O)OCc3ccccc3)n2)cc1` [Compound 5370, 2-{4-[4-(3-Methoxy-propylcarbamoyl)-phenyl]-thiazol-2-ylcarbamoyl}-pyrrolidine-1-carboxylic acid benzyl ester], for which the inhibition at 10 µM was found to be 100%. Compound `O=C(NC1CC1)c1ccc(-c2csc(NC(=O)[C@@H]3CCCN3C(=O)C3(c4ccccc4)CC3)n2)cc1` [Compound 5371, 1-(1-Phenyl-cyclopropanecarbonyl)-pyrrolidine-2-carboxylic acid [4-(4-cyclopropylcarbamoyl-phenyl)-thiazol-2-yl]-amide] gave an inhibition at 10 µM of 100%.

Regarding `O=C(Nc1ccccn1)c1ccc(-c2csc(NC(=O)[C@@H]3CCCN3C(=O)OCc3ccccc3)n2)cc1` [Compound 5372, 2-{4-[4-(Pyridin-2-ylcarbamoyl)-phenyl]-thiazol-2-ylcarbamoyl}-pyrrolidine-1-carboxylic acid benzyl ester], at 10 µM the inhibition was 99.9%.
